This passage reports Free oil production results from US7816342B2, “Anti-obesity compositions” (Hoffmann-La Roche Inc., priority 2002, dated 2010).

Structures are written as SMILES. Several values for one entry are separate records, joined by “and”; a condition that tells them apart may be missing. Equal values may be shown once.

The subject of the assay is Healthy volunteers. Description: acute human side effect model (3-meal test), free oil. Particulars: orlistat alone (own control), individual volunteers. The assay is classed as in vivo. The text has this:
To test substances that will ameliorate the oil-related side effects associated with orlistat treatment, an acute human model was developed. Healthy volunteers received orlistat alone or in combination with the test substance during 3 consecutive meals (3-meal test). The modified orlistat formulations used in these 3-meal tests induce 70-80% fat excretion. A questionnaire was given to the volunteers to record side effects. The most severe oil related side effect is oily spotting (uncontrolled loss of oil). This side effect is difficult to quantify accurately in an acute model, however, in some volunteers a spontaneous separation of fat from formed stool was observed. This amount of fat, called free oil (mainly containing triglycerides) was isolated and weighted. The amount of free oil was used as a surrogate marker for the oily spotting as this is considered necessary for the appearance of oily spotting. Two clinical studies have been conducted to investigate the gastro-intestinal adverse event modifying effects of numerous substances. It appears that volunteers show an individual sensitivity to the orlistat-related gastro-intestinal side effects. […] For a given volunteer a substance is considered as positive when the free oil quantity is reduced by at least 50% compared to the control value (orlistat alone). […]

For the compound `CCCCCCCCCCC[C@@H](C[C@@H]1OC(=O)[C@H]1CCCCCC)OC(=O)[C@H](CC(C)C)NC=O` [orlistat], the Free oil production (Test 1) was 11 g/week and 9 g/week; the Free oil production (Test 2) was 17 g/week and 40 g/week and 39 g/week.
